Test results as given in US20220280507A1, “USES OF 5-METHYLTETRAHYDROFOLATE AND ITS COMPOSITION” (Lianyungang Jinkang Hexin Pharmaceutical Co., Ltd., priority 2019, published 2022).

How the values were obtained:
[1] = tested on: hyperlipemia rats; assay: Hyperlipemia rats (high-fat diet), biochemical indexes TG, TC, SOD, MDA; format: in vivo, SD rats; settings: 50 mg·kg−1·d−1, 60 d
Experimental: (§1) Experiment 5 Effect of 5-Methyltetrahydrofolate Calcium on Hyperlipemia Rats
(§2) 7 weeks later, one rat in the control group and one rat in the model group were sacrificed for liver tissue section to check fatty degeneration of hepatocytes (see Table 7) to confirm whether modeling was successful. The remaining 40 modeling rats were randomly divided into low-dose (1 mg·Kg−1) group, medium-dose (2 mg·Kg−1) group, high-dose (4 mg·Kg−1) group, positive drug group, and model group.
(§3) Bicyclol (place of origin: Beijing Xiehe Pharmaceutical Factory, specification: 25 mg/tablet, batch number: H20040467) was used as a positive drug.
(§4) After successful modeling, rats were administered drugs with dosages as prescribed for 60 consecutive days, continued to be fed with high-fat diet, and dissected on the 61st day. Liver was harvested and weighed, liver index was calculated, right lobe tissue was taken to prepare frozen sections, and fat staining was performed with Sudan III for pathological scoring according to guidelines for diagnosis and treatment of NAFLD. Another liver tissue was taken to prepare homogenate, and total cholesterol (TC), triglyceride (TG), malondialdehyde (MDA), and superoxide dismutase (SOD) in serum were detected.

[2] = tested on: IL-1β; assay: Alcoholic fatty liver model, IL-1β in hippocampus tissue (ELISA); format: in vivo, SD rats; settings: liquor model, 50 mg·kg−1·d−1 ig 60 d, n=16
Experimental: (§5) According to their weight, they were randomly divided into vehicle control group (purified water, ig), model control group (liquor, 10 ml·Kg−1), positive control group (bicyclol, 50 mg·Kg−1, ig), folic acid calcium salt high-dose group (4 mg·Kg−1), folic acid calcium salt medium-dose group (2 mg·Kg−1), folic acid calcium salt low-dose group (1 mg·Kg−1), in half female and half male, and 16 rats in each group. Purified water was used as a negative control, and bicyclol (place of origin: Beijing Xiehe Pharmaceutical Factory, specification: 25 mg/tablet, batch number: H20040467) was used as a positive control drug. Route of administration: all were administered by oral gavage. Dosage of administration: 1 mg·Kg−1, 2 mg·Kg−1, and 4 mg·Kg−1. Frequency of administration: once a day for 60 consecutive days.
(§6) Method of administration: administration started at prescribed doses on the day of modeling for 60 consecutive days and ended at the 60th day. At the same time, rats in each group were weighed every other week during administration period to monitor their body weight changes. On the 61st day, rats were dissected and serum was collected for determination of triglyceride (TG), total cholesterol (TC), malondialdehyde (MDA), superoxide dismutase (SOD) and liver histopathologic examination. The brain tissue of rats was taken out, and hippocampus tissue was separated on ice plate, prepared to homogenate with a mass fraction of 10% with purified water, then the homogenate was centrifuged to obtain supernatant. ELISA was used to detect the levels of inflammatory factors TNF-α and IL-1β in hippocampus tissue with continuous spectrum scanning microplate reader.

[3] = tested on: TNF-α; assay: Alcoholic fatty liver model, TNF-α in hippocampus tissue (ELISA); format: in vivo, SD rats; settings: liquor model, 50 mg·kg−1·d−1 ig 60 d, n=16
Experimental: as §5, §6

[4] = tested on: alcoholic liver damage and fatty liver; assay: Alcoholic fatty liver model, serum TG, TC, SOD, MDA and liver histopathology; format: in vivo, SD rats
Experimental: as §5, with “96 SPF-grade SD rats were chosen in half female and half male with an average weight of 176-220 g at the beginning of the experiment. According” for “According”, “days. Erguotou (batch number: 201603092, specification: 2L, place of origin: Beijing Shunxin Agriculture Co., Ltd.) model establishing method: gavage with diluted 56-degree Erguotou twice a day for 60 consecutive days.” for “days.”
as §6

[5] = Alcoholic fatty liver model, body weight during administration period; format: in vivo, SD rats; settings: liquor model, 50 mg·kg−1·d−1 ig
Experimental: as §5, §6

[6] = tested on: hyperlipemia rats; assay: Hyperlipemia rats (high-fat diet), body mass, liver mass, liver index, NASH pathology; format: in vivo, SD rats; settings: positive drug group, 60 d
Experimental: as §1, §2, §3, §4

[7] = tested on: IL-6; assay: LPS-induced inflammatory response in astrocytes, IL-6 release (ELISA); format: cell-based, Kunming mice; settings: culture supernatant, LPS 1 μg·ml-1 + substance 10 μg·ml-1, 24 h, n=6
Description: (§7) Experiment 9 Inhibition of 5-Methyltetrahydrofolate and Curcumin on LPS-Induced Inflammatory Response in Astrocytes
(§8) The cerebral cortex of Kunming mice at 1˜2 d was taken out under aseptic conditions, washed 3 times with cold PBS after removing residual meninges and blood vessels, prepared into single cell suspension by blowing, centrifuged, the supernatant was discarded, and the precipitant was resuspended in AST basic medium (high-sugar DMEM containing 10% FBS). The suspension was inoculated into a culture flask coated with poly-L-lysine (0.1 mg/ml), and cultured in a CO2 incubator. After 24 h, tissue debris and non-adherent cells were removed by replacing the medium. Afterwards, the medium was replaced every 3 days until the cells reached 80% confluence, then the flask was placed on a constant temperature rotary shaker, where the suspension was centrifuged at 180 r/min, 37° C. for 18 h to remove oligodendrocytes and microglia from the upper layer. Then trypsin digestion was used for subculture. […]
(§9) LPS (1 μg·ml-1), LPS (1 μg·ml-1)+curcumin (10 μg·ml-1), LPS (1 μg·ml-1)+5-MTHF-Ca (10 μg·ml-1); experimental group: LPS (1 μg·ml-1)+curcumin (5 μg·ml-1)+5-MTHF-Ca (5 μg·ml-1). After 24 h, the culture supernatant was collected, and the cytokines IL-6, IL-1β and TNF-α were detected by ELISA.

[8] = tested on: IL-1β; assay: LPS-induced inflammatory response in astrocytes, IL-1β release (ELISA); format: cell-based, Kunming mice; settings: culture supernatant, LPS 1 μg·ml-1 + substance 10 μg·ml-1, 24 h, n=6
Description: as §7, §8, §9

[9] = tested on: TNF-α; assay: LPS-induced inflammatory response in astrocytes, TNF-α release (ELISA); format: cell-based, Kunming mice; settings: culture supernatant, LPS 1 μg·ml-1 + substance 10 μg·ml-1, 24 h, n=6
Description: as §7, §8, §9

[10] = day 61, liquor model, 50 mg·kg−1·d−1 ig 60 d, n=16
[11] = serum day 61, liquor model, 50 mg·kg−1·d−1 ig 60 d, n=16

COC(=O)c1cc(OC)c2c(c1-c1c(CO)cc(OC)c3c1OCO3)OCO2 [bicyclol, reference compound]
MDA [1]: 72.39 ± 19.23 nmol/mgprot | SOD [1]: 157.41 ± 16.45^ U/mgprot | TC [1]: 1.45 ± 0.63 mmol/L | TG [1]: 1.23 ± 0.35 mmol/L | IL-1β in hippocampus tissue [2]: 73.93 ± 9.37 μg · g^−1 prot | TNF-α in hippocampus tissue [3]: 286.32 ± 43.79.* μg · g^−1 prot | MDA [4, 10]: 70.41 ± 20.33 nmol/mgprot | SOD [4, 10]: 167.47 ± 18.91^ U/mgprot | Pathological examination of liver ([4]; liquor model, positive drug group 50 mg·Kg−1 ig 60 d): no hyperplasia of interstitial connective tissue and fatty degeneration of hepatocytes | TC [4, 11]: 1.45 ± 0.43 mmol/L | TG [4, 11]: 1.03 ± 0.34 mmol/L | Body weight ([5]; Week 0, n=16): 188.19 g | Body weight ([5]; Week 1, n=16): 211.95 g | Body weight ([5]; Week 2, n=16): 279.31 g | Body weight ([5]; Week 3, n=16): 292.58 g | Body weight ([5]; Week 4, n=16): 317.80 g | Body weight ([5]; Week 5, n=16): 313.19 g | Body weight ([5]; Week 6, n=16): 333.57 g | Body weight ([5]; Week 7, n=16): 360.01 g | Body weight ([5]; Week 8, n=16): 380.37 g | Body mass ([6]; 8 cases): 453.8 ± 34.7 g | Liver index ([6]; 8 cases): 3.2 ± 0.4 | Liver mass ([6]; 8 cases): 14.6 ± 4.5 g | Pathological state (NASH) ([6]; of 8 cases): 2 cases

COc1cc(/C=C/C(=O)CC(=O)/C=C/c2ccc(O)c(OC)c2)ccc1O [Cur, curcumin, reference compound]
IL-6 [7]: 1003.97 ± 60.33 pg/mL | IL-1β [8]: 742.12 ± 10.33 pg/mL | TNF-α [9]: 492.32 ± 8.92 pg/mL
